Assay results published in US6482815B1 (priority 1999, dated 2002).
pIC50: −log10 of the molar value. Like-named read-outs stand apart in the source and are kept apart here.

What was measured:
ALL1 = test: cells; assay type: cell-based; details: Homo sapiens, read-out: ALL1 IC50
RS4;11 = test: cells; assay type: cell-based; details: Homo sapiens, RS4-11, read-out: RS4;11 IC50
MOLT-3 [1] = test: cells; assay type: cell-based; details: Homo sapiens, MOLT-3, read-out: MOLT-3 IC50
NALM-6 [2] = test: Anti-proliferative activity (colony counts), NALM-6; assay type: cell-based, human
Source text: (§1) The dose-responsive anti-proliferative activity of various organic arsenic acid substituted compounds against leukemic cell lines (NALM-6 and MOLT-3) is shown below in Table 3. FIGS. 3A-3F show dose response curves in ALL1, NALM-6, and MOLT-3 cells.

BT20 [3] = test: cells; details: Homo sapiens, BT-20, read-out: BT20 IC50
MOLT-3 [4] = test: Anti-proliferative activity (colony counts), MOLT-3; assay type: cell-based, human
Source text: as §1

primary leukemic cells = test: MTT cytotoxicity against primary leukemic cells; details: cells from 5 leukemia patients, FIGS. 4A-4E
NALM-6 [5] = test: cells; assay type: cell-based; details: Homo sapiens, NALM-6, read-out: NALM-6 IC50
BT20 [6] = test system: BT20
[7] = test system: leukemic cell lines (NALM-6, MOLT-3, ALL1, RS4;11); test: cells; details: Homo sapiens, read-out: IC50 values in leukemic cell lines
NALM-6 cells = test: MTT cytotoxicity over 1-4 days versus arsenic trioxide, NALM-6; details: MTT, doses 0.07 μM to 5 μM
[8] = NALM-6, concentration 0.1 (mM as printed)
[9] = NALM-6, concentration 1 (mM as printed)
[10] = NALM-6, concentration 10 (mM as printed)
[11] = NALM-6, concentration 100 (mM as printed)
[12] = MOLT-3, concentration 0.1 (mM as printed)
[13] = MOLT-3, concentration 1 (mM as printed)
[14] = MOLT-3, concentration 10 (mM as printed)
[15] = MOLT-3, concentration 100 (mM as printed)

| Compound | melting point [°C] | pIC50 (ALL1) | pIC50 (RS4;11) | pIC50 (MOLT-3 [1]) | % Inhibition (NALM-6 [2]; [8]) [%] | Mean No. of Colonies/10^6 Cells (NALM-6 [2]; [8]) | % Inhibition (NALM-6 [2]; [9]) [%] | Mean No. of Colonies/10^6 Cells (NALM-6 [2]; [9]) | % Inhibition (NALM-6 [2]; [10]) [%] | Mean No. of Colonies/10^6 Cells (NALM-6 [2]; [10]) [Colonies/10^6 Cells] | % Inhibition (NALM-6 [2]; [11]) [%] | Mean No. of Colonies/10^6 Cells (NALM-6 [2]; [11]) [Colonies/10^6 Cells] | pIC50 (BT20 [3]) | Mean No. of Colonies/10^6 Cells (MOLT-3 [4]; [12]) | % Inhibition (MOLT-3 [4]; [13]) [%] | Mean No. of Colonies/10^6 Cells (MOLT-3 [4]; [13]) | % Inhibition (MOLT-3 [4]; [14]) [%] | Mean No. of Colonies/10^6 Cells (MOLT-3 [4]; [14]) [Colonies/10^6 Cells] | % Inhibition (MOLT-3 [4]; [15]) [%] | pIC50 (NALM-6 [5]) | also measured |
| --- | --- | --- | --- | --- | --- | --- | --- | --- | --- | --- | --- | --- | --- | --- | --- | --- | --- | --- | --- | --- | --- |
| COc1cc2ncnc(Nc3ccc([As](=O)(O)O)cc3)c2cc1OC | > 300 | – | – | – | – | – | – | – | – | – | – | – | – | – | – | – | – | – | – | – | – |
| COc1cc2ncnc(Nc3ccc(N=Nc4ccc([As](=O)(O)O)cc4)cc3)c2cc1OC [WHI-P273, 4-[(6′,7′-Dimethoxyquinazoline-4′)-aminophenylazo]phenyl arsenic acid] | – | 5.09 | 5.11 | 4.92 | 13.7 | 3638(3260, 4016) Colonies/10^6 Cells | 98.5 | 61(24, 96) Colonies/10^6 Cells | 100 | 0 | 100 | 0 | < 3.60 | 1230(968, 1492) Colonies/10^6 Cells | 75 | 264(216, 312) Colonies/10^6 Cells | 100 | 0 | 100 | 5.14 | Mean No. of Colonies/10^6 Cells (MOLT-3 [4]; [15]): 0 Colonies/10^6 Cells; cytotoxic activity against primary leukemic cells (in words) (primary leukemic cells): susceptible to the cytotoxic effects |
| CSc1nccc(Nc2ccc(N=Nc3ccc([As](=O)(O)O)cc3)cc2)n1 [WHI-P370, 2-Methylthio-4-[(4′-aminophenylazo)-phenylarsenic acid]pyrimidine] | 240 to 242 | 5.72 | 5.32 | 5.54 | 30.9 | 2194(2860, 2968) Colonies/10^6 Cells | 100 | 0 Colonies/10^6 Cells | 100 | 0 | 100 | 0 | 4.17 | 992(896, 1088) Colonies/10^6 Cells | 100 | 0 Colonies/10^6 Cells | 100 | 0 | 100 | 5.22 | cytotoxic against the breast cancer cell line BT20 (in words) (BT20 [6]): cytotoxic; % Inhibition (MOLT-3 [4]; [12]): 6.1%; Mean No. of Colonies/10^6 Cells (MOLT-3 [4]; [15]): 0 Colonies/10^6 Cells; cytotoxic activity against primary leukemic cells (in words) (primary leukemic cells): susceptible to the cytotoxic effects |
| O=[As](O)(O)c1ccc(N=Nc2ccc(Nc3ncnc4[nH]cnc34)cc2)cc1 [WHI-P371, 6-[(4′-Aminophenylazo)-phenylarsenic acid]-purine] | > 300 | 4.61 | 4.79 | 4.67 | 8.8 | 3846(3696, 3996) Colonies/10^6 Cells | 76.4 | 994(616, 1372) Colonies/10^6 Cells | 100 | 0 | 100 | 0 | < 3.60 | 1098(1004, 1192) Colonies/10^6 Cells | 27.9 | 761(678, 844) Colonies/10^6 Cells | 100 | 0 | 100 | 4.82 | Mean No. of Colonies/10^6 Cells (MOLT-3 [4]; [15]): 0 Colonies/10^6 Cells; cytotoxic activity against primary leukemic cells (in words) (primary leukemic cells): susceptible to the cytotoxic effects |
| Nc1nc(N)nc(Nc2ccc(N=Nc3ccc([As](=O)(O)O)cc3)cc2)n1 [WHI-P374, 2,6-Diamino-4[(4′-aminophenylazo)-phenylarsenic acid]-1,3,5-triazine] | > 300 | 4.25 | 4.27 | 3.98 | – | – | – | – | – | – | – | – | 4.86 | – | – | – | – | – | – | 4.30 | cytotoxic against the breast cancer cell line BT20 (in words) (BT20 [6]): cytotoxic |
| COc1cc2ncnc(Nc3ccccc3[As](=O)(O)O)c2cc1OC [WHI-P378, 4-(2′-phenylarsenic acid)amino-6,7-dimethoxyquinazoline] | > 300 | 3.89 | 3.94 | 4.17 | – | – | – | – | – | – | – | – | < 3.60 | – | – | – | – | – | – | 4.33 | – |
| CSc1nccc(Nc2ccc([As](=O)(O)O)cc2)n1 [WHI-P380, 2-Methylthio-4-(4′-phenylarsenic acid)-aminopyrimidine] | > 300 | 5.21 | 4.99 | 4.85 | 66.9 | 400(116, 684) Colonies/10^6 Cells | 99.8 | 2(3, 1) Colonies/10^6 Cells | 100 | 0 | 100 | 0 | 3.62 | 678(624, 732) Colonies/10^6 Cells | 69.7 | 436(272, 600) Colonies/10^6 Cells | 100 | 0 | 100 | 5.77 | pIC50 [7]: 4.85 to 5.77; % Inhibition (MOLT-3 [4]; [12]): 52.8%; Mean No. of Colonies/10^6 Cells (MOLT-3 [4]; [15]): 0 Colonies/10^6 Cells; cytotoxic activity against primary leukemic cells (in words) (primary leukemic cells): susceptible to the cytotoxic effects |
| Arsenic trioxide [reference compound] | – | – | – | – | – | – | – | – | – | – | – | – | – | – | – | – | – | – | – | – | pIC50 (NALM-6 cells; read-out: Cytotoxicity against NALM-6 cells IC50, Day 1, 1 day of treatment): 5.42; pIC50 (NALM-6 cells; read-out: Cytotoxicity against NALM-6 cells IC50, Day 2, 2 days of treatment): 5.49; pIC50 (NALM-6 cells; read-out: Cytotoxicity against NALM-6 cells IC50, Day 3, 3 days of treatment): 5.70; pIC50 (NALM-6 cells; read-out: Cytotoxicity against NALM-6 cells IC50, Day 4, 4 days of treatment): 5.92 |
